Data on six compounds can be found in US20070276034A1, “Compounds, compositions and methods for the treatment of synucleinopathies” (priority 2002, published 2007).

The subject of test [1] is BE-M17 human neuroblastoma cells overexpressing A53T α-synuclein. Briefly: Thioflavin S aggregation assay in rotenone-treated cells. In kind it is cell-based. The source says:
(§1) Therefore, to test the therapeutic potential of the compounds, two cell-based assays were utilized. In both assays, rotenone is used to induce mitochondrial oxidative stress and α-synuclein aggregation. The first assay utilizes the binding of the fluorescent dye thioflavin S to structures with high β-sheet content including α-synuclein fibrils. Therefore, quantitative assessment of the extent of thioflavin S-positive staining of fixed cells is used to test the ability of the compounds to decrease the amount of α-synuclein aggregates. In the second assay, cell viability is assessed using the XTT Cytotoxicity assay, which is dependent on intact, functional mitochondria in live cells. Thus, the XTT Cytotoxicity assay is used to test the ability of the compounds to ameliorate the mitochondrial toxicity and resulting loss of viability associated with the accumulation of α-synuclein aggregates. Phrased another way, the XTT Cytotoxicity assay is used to gauge the compounds neuroprotective efficacy. These studies are presented in the following examples.
(§2) BE-M17 human neuroblastoma cells stably transfected with A53T-mutant human α-synuclein were obtained. Cell culture reagents were obtained from Gibco/Invitrogen, and cells were grown in OPTIMEM supplemented with 10% FBS, Penicillin (100 units/mil)-Streptomycin (100 μg/ml) and 500 μg/ml G418 as previously described (Ostrerova-Golts et al., J. Neurosci., 20:6048-6054, 2000).
Thioflavin S is commonly used to detect amyloid-containing structures in situ, including in brain tissue (Vallet et al., Acta Neuropathol., 83:170-178, 1992), and cultured cells (Ostrerova-Golts et al., J. Neurosci., 20:6048-6054, 2000), whereas thioflavin T is often used as an in vitro reagent to analyze the aggregation of soluble amyloid proteins into fibrils enriched in β-pleated sheet structures (LeVine III, Prot. Sci., 2:404-410, 1993). Therefore, Thioflavin S histochemistry was used on cultured cells to detect aggregates containing a high degree of […] structures that formed in response to oxidative stress-inducing agents (in this case rotenone) as previously described, with minor modifications (Ostrerova-Golts et al., J. Neurosci, 20:6048-6054, 2000). Briefly, for these studies, cells were grown on Poly-D-Lysine coated glass slide chambers at approximately 3×10^4 cells/cm^2. After 24 hours, cells were treated with 500 nM, 1 μM or 5 μM rotenone (Sigma) or vehicle (0.05% DMSO) as indicated. Immediately after rotenone (or vehicle) addition, compounds were added at the indicated concentration, or cell culture media only (no compound) in the presence of rotenone was added. Identical treatments were repeated after 48 hours. After an additional 48 hours, cells were fixed for 25 minutes in 3% paraformaldehyde. After a PBS wash, the cells were incubated with 0.015% thioflavin S in 50% ethanol for 25 minutes, washed twice for four minutes in 50% ethanol and twice for five minutes in deionized water and then mounted using an aqueous-based mountant designed to protect against photobleaching. Aggregates that bind to thioflavin S were detected with a fluorescent microscope using a High Q FITC filter set (480 to 535 nm bandwidth) and a 20× objective lens unless otherwise indicated. Between 8 and 16 representative images per condition were selected, imaged and processed by an experimenter who was blinded to treatment conditions. To assess the amount of thioflavin S-positive aggregates, the total area per field covered by thioflavin S-positive inclusions was determined. […] Spurious, non-cell associated fluorescence was manually removed. Unless indicated otherwise, data represent group means ±SEM. Statistical analyses were performed with GraphPad Prism (GraphPad Inc). Differences between means (two samples) were assessed by the […]. Differences among multiple means were assessed by one-factor ANOVA followed by Tukey's multiple comparison test.

Test [2] deals with A53T α-synuclein-expressing BE-M17 cells. Briefly: XTT Cytotoxicity assay - protection against rotenone-induced cytotoxicity. In kind it is cell-based.
Source text: as §1, §2
Research has shown that the accumulation of α-synuclein fibrils in Lewy bodies contributes mechanistically to the degradation of neurons in Parkinson's disease and related disorders (Polymeropoulos et al., Science 276:2045-2047, 1997; Kruger et al., Nature Genet. 18:106-108, 1998). Here, the XTT Cytotoxicity assay (hereafter referred to as the XTT assay) was used to measure the ability of test compounds to protect against rotenone-induced cytotoxicity (neuroprotective ability). The assay is based on the principle that conversion of the yellow tetrazolium salt XTT to form an orange formazan dye (that absorbs light around 490 nm) occurs only in metabolically active, viable cells. Therefore, light absorbance at 490 nm is proportional to cell viability. For this assay, cells were plated in 96 well tissue culture dishes at 10^4 cells per well. After 24 hours, cells were treated with 500 nM or 2 μM rotenone, or vehicle (0.05% DMSO) as indicated. Immediately after rotenone addition, compounds were added at the indicated concentration. […] Untreated cells received cell culture media only (no compound, with or without rotenone). After 40-44 hours of treatment, conditioned media was removed and replaced with 100 μl fresh media and 50 μl XTT labeling reaction mixture according to the manufacturer's recommendations. Four to five hours later, the absorbance at 490 nm was measured and corrected for absorbance at the 700 nm reference wavelength. […] Percent inhibition of cell death was calculated as the proportion of the rotenone-induced absorbance (viability) decrease that was eliminated by test compound treatment.
In general terms: Formazan colour is commonly taken as a measure of viable cells.

The target of the next test is T1, Wild-type α-synuclein (Homo sapiens, UniProt P37840).
T1 construct: purchased rPeptide (Athens, Ga., USA)
The test is described as follows: Circular dichroism spectroscopy - conversion of α-synuclein to β-sheet-rich structure. The test is classed as biochemical. As to conditions: for inhibition of conversion of α-synuclein to a β-sheet-rich structure (in words): 48 hours, 1 mg/ml compound (FIG. 13D). Here is the method: For this purpose, α-synuclein was obtained from rPeptide (Athens, Ga., USA) as a lyophilized salt in 1 mg aliquots. Buffer components and other solvents were obtained from Sigma as A.C.S. Reagent grade or higher. Wild-type α-synuclein was dissolved in a buffer containing 9.5 mM phosphate and 139.7 mM potassium chloride, adjusted to pH 7.4. […] Aliquots of the solutions were taken at the appropriate time point for CD spectral analysis. CD spectra were acquired on a Jasco J-810 spectropolarimeter using a 0.1 cm path length cell. All spectra were recorded with a step size of 0.1 nm, a bandwidth of 1 nm, and an α-synuclein concentration of 0.1 mg/ml. The spectra were trimmed at the shortest wavelength which still provided a dynode voltage less than […]. The trimmed spectra were then subjected to a data processing routine beginning with noise reduction by Fourier transform followed by subtraction of a blank spectrum (compound or vehicle only without α-synuclein). These blank corrected spectra were then zeroed at 260 nm and the units converted from millidegrees to specific ellipticity. Percent β-sheet was determined from processed spectra by subtracting the ellipticity minimum value at approximately 218 nm from the maximum value observed at approximately 197 nm and referencing to a scale normalized to nearly fully folded and unfolded reference values, consistent with previous reports (Ramirez-Alvarado et al., J. Mol. […] Andersen et al., J. Am. Chem. […] These percent β-sheet values were then used to provide the respective relative % inhibition induced by the compounds.
Background: Circular dichroism is the unequal absorption of left and right circularly polarised light.

[3] abbreviates: 1 μM rotenone, 1 μg/ml compound.
Setting [4] is: 50 μg/ml compound, at both rotenone doses (500 nM or 2 μM).
Setting [5] is: 5 μM rotenone, 1 μg/ml compound.
Setting [6] is: 5 μg/ml compound, rotenone 500 nM or 2 μM.

Where two headings read alike, the source gives them in different places.

The inhibition is the drop in the measured response relative to a control, in per cent.

Regarding `Oc1ccc(Cc2ccc(O)c(O)c2)cc1O` [Compound 3, 3,4,3′,4′-tetrahydroxydiphenylmethane], the “reduction of rotenone-induced thioflavin S-positive aggregates” value (“reduction” for short) in test [1] (setting [3]) turned out to be 90%; in test [1] (1 μM rotenone, 5 μg/ml compound) it was 90%.

With `O=C(NCc1ccc(O)c(O)c1)C(=Cc1ccc(O)c(O)c1)NC(=O)c1ccc(O)c(O)c1` [Compound 21, α-(3,4-dihydroxybenzamido)-3,4-dihydroxycinnamic acid 3,4-dihydroxybenzyl amide], in test [2] (setting [4]), the “inhibition of rotenone-induced loss of viability” value is given as 30-40%. In addition, the “reduction” value in test [1] (setting [5]) is 84%.

For `O=C(c1ccc(O)c(O)c1)N1CCN(C(=O)c2ccc(O)c(O)c2)CC1` [Compound 23, 1,4-bis(3,4-dihydroxybenzoyl)piperazine], at Wild-type α-synuclein, the “inhibition of conversion of α-synuclein to a β-sheet-rich structure (in words)” value (from here on “inhibition of conversion of α-synuclein”) is recorded as “modest inhibitory effects”.

As to `O=C(Nc1ccc(O)c(O)c1)c1ccc(O)c(O)c1` [Compound 51, 3,4-dihydroxybenzoic acid 3,4-dihydroxyanilide], the “conversion of natively unfolded α-synuclein to a β-sheet-rich structure (in words)” value at Wild-type α-synuclein (1 mg/ml α-synuclein, 1 mg/ml compound, 24 hours, 37°) is listed as “prevents the conversion of natively unfolded α-synuclein to a β-sheet-rich structure”. Moreover, on Wild-type α-synuclein (1.0 mg/ml α-synuclein, 24 hours incubation at 37° C.), the “dose sufficient to completely eliminate the conversion of α-synuclein to a β-sheet-rich structure” value worked out at 0.25 mg/mL. Besides, the IC50 on Wild-type α-synuclein (1.0 mg/ml α-synuclein, 24 hours incubation at 37° C., read-out: dose sufficient to inhibit the conversion of α-synuclein to a β-sheet-rich structure by approximately 50% (converted)) was 574 µM. The “inhibition of conversion of α-synuclein” value against Wild-type α-synuclein was “completed inhibited conversion”. In addition, the “β-sheet-rich structure of α-synuclein” value at Wild-type α-synuclein (compound added 24 hours after the beginning (t=24 hr), up to 144 hours at 37° C.) is on record as at most 45%; at Wild-type α-synuclein (compound added at the beginning (t=0 hr), sampled up to 144 hours) it was “approximately 10%”. Besides, in test [2] (500 nM rotenone), the “optimal therapeutic dose in XTT assay” value was about 25 µg/mL. In addition, in test [2] (setting [4]), the “inhibition of rotenone-induced loss of viability” value is on record as 25-30%. The inhibition at 10 µg/mL in test [2] (Homo sapiens, 10 μg/ml compound, 500 nM rotenone, read-out: inhibition of rotenone-induced toxicity) turned out to be 45%. Further, the inhibition at 25 µg/mL in test [2] (Homo sapiens, 25 μg/ml compound, 500 nM rotenone, read-out: inhibition of rotenone-induced toxicity) was determined as 55%. The “reduction” value worked out at 87% in test [1] (1 μM rotenone, 500 ng/ml compound) and 91% in test [1] (setting [3]).

As to `O=C(Nc1ccc(O)c(O)c1)C(=O)Nc1ccc(O)c(O)c1` [Compound 63, oxalic acid bis(3,4-dihydroxyanilide)], the “inhibition of conversion of α-synuclein” value at Wild-type α-synuclein was “modest inhibitory effects”. The “inhibition of rotenone-induced loss of viability” value in test [2] (setting [6]) was 10-13%. For the same compound, the inhibition at 50 µg/mL in test [2] (Homo sapiens, 50 μg/ml compound, 500 nM rotenone, read-out: inhibition of rotenone-induced toxicity) is about 55%; in test [2] (Homo sapiens, 50 μg/ml compound, 2 μM rotenone, read-out: inhibition of rotenone-induced toxicity) it was about 35%.

Turning to `O=C(Nc1ccc(O)c(O)c1)Nc1ccc(O)c(O)c1` [Compound 76, 1,3-bis(3,4-dihydroxyphenyl)urea], on Wild-type α-synuclein, the “inhibition of conversion of α-synuclein” value is on record as “completed inhibited conversion”. Besides, the “inhibition of rotenone-induced loss of viability” value in test [2] (setting [6]) is recorded as “approximately 18%”. In addition, the “reduction” value in test [1] (5 μM rotenone, 500 ng/ml compound) is reported as 73%; in test [1] (setting [5]), 80%; in test [1] (5 μM rotenone, 5 μg/ml compound), 91%.
